The test system of series [1] is pooled primary human hepatocyte suspensions. In words: Bayesian (MCMC, invitroTKstats) analysis of hepatic clearance data. Conditions: Level-4 Bayesian estimate, posterior median; Clint.1 series (Clint.10 all NA).
Excerpt: Markov Chain Monte Carlo was employed in a Bayesian analysis to estimate uncertainty of the hepatic clearance point measures as previously described, but with some modifications [10]. Briefly, after organizing PFAS-level data into a single file, the relationship between the relevant measurement process parameters was described in a graphic model in JAGS language [13] interfaced through R. For hepatic clearance data, the model describes the PFAS-specific mass spectrometric response factor between analyte peak ratio (to internal standard) and chemical concentration. […] The assumed prior for whether the chemical degraded abiotically in vitro followed a Bernoulli distribution with a 5% chance of abiotic degradation. Separate biotic and abiotic components for chemical elimination were estimated, each with a slope following an assumed uniform prior distribution bounded between the zero and the -log (limit of quantitation/Ctest). In scenarios where an external calibration without internal standard was used, the response factor was calculated using the analyte peak alone, introducing additional uncertainty due to the inability to normalize for recovery issues. The model was analyzed jointly by JAGS using five Markov chains. Convergence was identified by requiring the five chains to be consistent, as indicated by the potential scale reduction factor [14] being less than 1.1. The analysis was performed using EPA-developed R package invitroTKstats, available upon request.
The test system is the same in series [2]. As to the kind of experiment: Hepatic clearance assay (substrate depletion, LC-MS). Conditions: in µL/min/10^6 cells; for Unadj Clint: unadjusted hepatic intrinsic clearance, Table S4; for Unadj Clint / in vitro CLint exp assay: pooled primary human hepatocyte suspensions; for CLint for HTTK: CLint value carried into HTTK/IVIVE. Here is the method: The rate of hepatic clearance was determined as previously described for a set of PFAS [11]. Analysis was conducted across two laboratories at the Division of Translational Toxicology (DTT) at the National Institute of Environmental Health Sciences (NIEHS) and the Center for Computational Toxicology and Exposure at the USEPA. The PFAS analyzed in each lab can be found in the Supplementary Materials.
The hepatic clearance assay was performed at both the DTT and EPA laboratories as described below. The pooled human hepatocyte suspensions used in this work were purchased commercially and meet the ethical and scientific standards described in the Human Ethics Rule (40 CFR 26). The suspensions were prepared from hepatocytes obtained from de-identified donors by a commercial vendor.
PFAS stock solutions prepared in DMSO were added to prewarmed William’s E medium to make a 2X working stock solution (2 µM). […] The working stock solutions were then transferred to a 96-well polypropylene plate and placed in an incubator at 37 °C with 5% carbon dioxide prior to adding cells. Cryopreserved pooled primary human hepatocyte suspensions (50-donor pool, mixed gender; BioIVT; Westbury, NY, USA) were thawed and transferred to vials containing hepatocyte thawing medium. After centrifuging for 5–10 min at 100× g, thawing medium was removed, being careful not to disturb the cell pellet. The primary human hepatocytes were then resuspended in pre-warmed complete Williams E medium to achieve a cell density of ~1.0 × 10^6 viable cells/mL as determined by Trypan Blue exclusion. Cells were then added to the 96-well incubation plates containing PFAS to achieve a final density of ~0.5 × 10^6 viable cells/mL and a 1 μM assay concentration (Ctest), then placed in incubator on a shaker at 300 rpm. Triplicate samples were removed from the incubator at time points ranging from 0 to 240 min and quenched with a total crash in 2–3 volumes of ice-cold acetonitrile. Samples were spun at 4000× g for 20 min, and supernatants were transferred to new tubes and stored at <−70 °C until analysis. Media-only (no cell) and/or heat-inactivated hepatocytes were included as negative controls for each chemical to evaluate and estimate chemical loss due to nonmetabolic processes (e.g., hydrolysis). Phenacetin was included in all runs as an assay reference compound; EPA also included propranolol as an additional reference compound.
Assay samples were diluted in mobile phase and analyzed using a Thermo Vanquish UPLC system with a Thermo Hypersil Gold aQ C18 column (100 × 2.1 mm, 1.9 […], Thermo Fisher Scientific Inc.) coupled to a Q Exactive Plus mass spectrometer. Gradient elution was used in the chromatographic separations using water with 20 mM ammonium acetate (mobile phase A) and methanol (mobile phase B), with the following gradient program: 0.5–7 min, 30%–90% B; 7–8 min, 90% B; 8–9 min, 90%–30% B; and 9–10 min, 30% B. The first minute of each injection was diverted to waste to avoid introduction of excessive salts from incubation medium. Analysis was detected in negative ion mode. Samples were quantified against an external, matrix-matched calibration curve. Additional methodologic information is available in Table S2.
To perform SPE, a positive-pressure manifold was employed along with Oasis WAX µElution plates and Oasis HLB 30 mg plates (Waters, Milford, MA, USA) for PFAS and positive-control extraction, respectively. […] The sorbent was then washed with 1% formic acid and water. Samples were eluted in 2% ammonia in methanol for analysis. Similarly, HLB plates were conditioned with methanol and water before sample was loaded onto the sorbent. The wells were then washed with 5% methanol in water and water before elution in methanol. For samples not undergoing SPE, the supernatant of the crashed assay sample was diluted in mobile phase prior to analysis. The first 1.5 min of the run was diverted to waste to prevent salt contamination.

The nature of series [3]: IVIVE: steady-state concentration (Css), generic HTTK model. On the set-up: species or system human. Conditions: for Css (mg/L) / Css (uM): Assuming 1 mg/kg/day dose rate, BW 70 kg; for CLhep: QL 1500000 uL/min; for Fub: fub=fup/(B:P), Fub set to 1 if needed; for CLint: scaled to whole liver: HPGL 110 mill cells/g, Vl 1596 g. How it is done: IVIVE was performed as previously described to calculate human steady-state concentrations (Css). Briefly, experimental plasma protein binding data presented elsewhere were transformed to fraction unbound in blood using blood-to-plasma partitioning values. Experimental Clint values generated here are used in conjunction with relevant liver scalars to scale up to estimate whole liver clearance. […] Once Css values were established, these were used with the PFAS-specific in vitro POD data to calculate the administered equivalent doses (AEDs) using reverse dosimetry. […] The fifth-percentile AC50 value was used to define the in vitro POD. All relevant inputs, scalars, and calculations are provided in Supplementary Information, as indicated in the results.

Series [4] relates to plasma protein. Conditions: fraction unbound in plasma, input for IVIVE calculations; cited from earlier work.

Molecules are shown by their SMILES.

Data on 26 compounds can be found in article PMC11435625, “In Vitro Hepatic Clearance Evaluations of Per- and Polyfluoroalkyl Substances (PFAS) across Multiple Structural Categories” (Toxics, 2024).

Consider `CNS(=O)(=O)C(F)(F)C(F)(F)C(F)(F)C(F)(F)C(F)(F)C(F)(F)C(F)(F)C(F)(F)F`, for which the Clint.1.Med in series [1] was 48.7.
`O=S(=O)(Cl)C(F)(F)C(F)(F)C(F)(F)C(F)(F)C(F)(F)C(F)(F)C(F)(F)C(F)(F)F` [Perfluoro-1-octanesulfonyl_chloride]: in series [1], the Clint.1.Med is recorded as 0.
In the case of `O=C(O)C(F)(F)C(F)(F)F` [Perfluoropropanoic_acid], the Clint.1.Med in series [1] is reported as 0.
Take `O=C(O)C=C(C(F)(F)F)C(F)(F)F` [3,3-Bis(trifluoromethyl)-2-propenoic acid]: the “Unadj Clint” value in series [2] came to 1.82. The Clint.1.Med in series [1] is 0.
On to `O=C(O)C(F)(F)C(F)(F)C(F)(F)C(F)(F)C(F)(F)C(F)(F)C(F)(F)F` [Perfluorooctanoic_acid], for which, in series [1], the Clint.1.Med was 0.
Turning to `N.O=C(O)C(F)(F)C(F)(F)C(F)(F)C(F)(F)C(F)(F)C(F)(F)C(F)(F)F` [Ammonium_perfluorooctanoate], in series [1], the Clint.1.Med was 10.8.
Consider `O=C(O)C(F)(F)C(F)(F)C(F)(F)C(F)(F)C(F)(F)C(F)(F)C(F)(F)C(F)(F)F` [Perfluorononanoic_acid], for which, in series [1], the Clint.1.Med is recorded as 10.4.
Consider `C[N+](C)(C)CCCNS(=O)(=O)C(F)(F)C(F)(F)C(F)(F)C(F)(F)C(F)(F)C(F)(F)C(F)(F)C(F)(F)F`, for which the Clint.1.Med in series [1] is listed as 0.
On the same count and under the same terms, the figure for `O=C(O)C(F)(F)C(F)(F)C(F)(F)C(F)(F)C(F)(F)C(F)(F)C(F)(F)C(F)(F)C(F)(F)C(F)(F)C(F)(F)C(F)(F)F` [Perfluorotridecanoic_acid] is 0.
Same read-out and setting: the value for `O=C(O)C(F)(F)C(F)(F)C(F)(F)OC(F)(C(F)(F)F)C(F)(F)F` [Perfluoro-4-isopropoxybutanoic_acid] was 0; that for `O=S(=O)(O)C(F)(F)C(F)(F)C(F)(F)C(F)(F)C(F)(F)C(F)(F)F` [Perfluorohexanesulfonic_acid] was 0; that for `O=C(O)C(F)(F)C(F)(F)C(F)(F)C(F)(F)C(F)(F)C(F)(F)C(F)(F)C(F)(F)C(F)(F)C(F)(F)C(F)(F)C(F)(F)C(F)(F)F` [Perfluorotetradecanoic acid (PFTeDA)] was 0.
Consider `O=C(O)C(F)(F)C(F)(F)C(F)(F)OC(F)(F)F` [Perfluoro(4-methoxybutanoic)_acid], for which, in series [1], the Clint.1.Med is 0.
Consider `O=S(=O)(OCC(F)(F)F)C(F)(F)C(F)(F)C(F)(F)C(F)(F)F`, for which the Clint.1.Med in series [1] is 0.
For the compound `O=C(O)C(F)(F)C(F)(F)C(F)F` [4H-Perfluorobutanoic_acid], the Clint.1.Med in series [1] was 0.
For the compound `O=S(=O)(O)C(F)(F)C(F)(F)C(F)(F)C(F)(F)C(F)(F)C(F)(F)C(F)(F)F` [Perfluoroheptanesulfonic_acid], the Clint.1.Med in series [1] is listed as 0.
For the compound `C[N+](C)(C)CCCNS(=O)(=O)C(F)(F)C(F)(F)C(F)(F)C(F)(F)C(F)(F)C(F)(F)C(F)(F)C(F)(F)F.[I-]`, in series [2], the “CLint for HTTK” value is 0, the “in vitro CLint exp assay” value came to 0 and the “Unadj Clint” value amounted to 4.28. In addition, in series [3], the “Css (mg/L)” value was determined as 19.15 mg/L, the “Css (uM)” value came to 31.97 µM, the “CLhep” value stood at 0.000 L/h and the Fub stood at 0.02291. For the same compound, in series [3], the “CLint” value was 0 µL/min. Also, in series [4], the Mean fu is reported as 0.0126.
Regarding `O=C(O)C(F)(F)C(F)(F)C(F)(F)OC(F)(F)F`, in series [2], the “CLint for HTTK” value is reported as 1.5 and the “in vitro CLint exp assay” value is given as 1.5. In series [3], the “Css (mg/L)” value is listed as 6.16 mg/L, the “Css (uM)” value is 22.00 µM, the “CLhep” value came out at 0.335 L/h and the Fub amounted to 0.02127. Moreover, the “CLint” value in series [3] was found to be 263340 µL/min. For the same compound, the Mean fu in series [4] was 0.0117.
Regarding `O=C(O)C(F)(F)C(F)(F)C(F)(F)C(F)(F)F` [Perfluoropentanoic_acid], in series [1], the Clint.1.Med is 0.
On to `O=C(O)C(F)(F)C(F)(F)C(F)(F)C(F)(F)C(F)(F)C(F)(F)C(F)(F)C(F)(F)F` [Perfluorononanoic acid (PFNA)], for which, in series [2], the “CLint for HTTK” value is recorded as 0 and the “in vitro CLint exp assay” value is 0. In addition, in series [3], the “Css (mg/L)” value stood at 150.84 mg/L, the “Css (uM)” value amounted to 325.11 µM, the “CLhep” value is recorded as 0.000 L/h and the Fub is 0.002909. For the same compound, the “CLint” value in series [3] is reported as 0 µL/min. The Mean fu in series [4] is 0.0016.
Turning to `N.O=C(O)C(F)(F)C(F)(F)C(F)(F)C(F)(F)C(F)(F)C(F)(F)C(F)(F)F` [Ammonium perfluorooctanoate (NH4PFOA)], in series [2], the “CLint for HTTK” value worked out at 2.06 and the “in vitro CLint exp assay” value is recorded as 2.06. Also, in series [3], the “Css (mg/L)” value is reported as 81.36 mg/L, the “Css (uM)” value came to 196.53 µM, the “CLhep” value is on record as 0.028 L/h and the Fub amounted to 0.001273. Further, the “CLint” value in series [3] came out at 361654 µL/min. Moreover, the Mean fu in series [4] is given as 0.0007.
On to `O=C(O)C(F)(F)C(F)(F)C(F)(F)C(F)(F)C(F)(F)C(F)(F)C(F)(F)C(F)(F)C(F)(F)C(F)(F)C(F)(F)C(F)(F)C(F)(F)F` [Perfluorotetradecanoic acid (PFTeA)], for which, in series [2], the “CLint for HTTK” value is given as 0 and the “in vitro CLint exp assay” value was 0. In addition, in series [3], the “Css (mg/L)” value came to 8.91 mg/L, the “Css (uM)” value is 12.47 µM, the “CLhep” value is given as 0.000 L/h and the Fub was 0.04927. Also, in series [3], the “CLint” value was 0 µL/min. In addition, the Mean fu in series [4] was 0.0271.
As to `O=S(=O)([O-])C(F)(F)C(F)(F)C(F)(F)C(F)(F)C(F)(F)C(F)(F)C(F)(F)C(F)(F)F.[K+]` [Potassium_perfluorooctanesulfonate], in series [1], the Clint.1.Med was 0.
Consider `O=S(=O)(O)C(F)(F)C(F)(F)C(F)(F)C(F)(F)C(F)(F)C(F)(F)C(F)(F)C(F)(F)F` [Perfluorooctane sulfonate (PFOS)], for which, in series [2], the “CLint for HTTK” value was found to be 0 and the “in vitro CLint exp assay” value amounted to 0. In series [3], the “Css (mg/L)” value turned out to be 49.25 mg/L, the “Css (uM)” value is 98.52 µM, the “CLhep” value is on record as 0.000 L/h and the Fub is on record as 0.008909. Besides, in series [3], the “CLint” value worked out at 0 µL/min. Moreover, the Mean fu in series [4] is listed as 0.0049.
Turning to `O=C(Cl)C(F)(F)C(F)(F)C(F)(F)C(F)(F)C(F)(F)C(F)(F)F` [Perfluoroheptanoyl chloride (PFHpA-Cl)], in series [2], the “CLint for HTTK” value is listed as 0 and the “in vitro CLint exp assay” value is recorded as 0. Moreover, in series [3], the “Css (mg/L)” value is recorded as 180.82 mg/L, the “Css (uM)” value turned out to be 473.43 µM, the “CLhep” value stood at 0.000 L/h and the Fub was determined as 0.002427. In series [3], the “CLint” value was 0 µL/min. Also, in series [4], the Mean fu is listed as 0.0017.
Regarding `O=S(=O)([O-])C(F)(F)C(F)(F)C(F)(F)C(F)(F)C(F)(F)C(F)(F)C(F)(F)C(F)(F)C(F)(F)C(F)(F)F.[Na+]` [Sodium_perfluorodecanesulfonate], in series [1], the Clint.1.Med is given as 4.87.
